Paper PMC12921516 (ACS Bio & Med Chem Au, 2025)
Entries after “also recorded” stand apart in the source; their conditions may differ.

What was measured:
hPTP1B1–285 = target: T1, hPTP1B1–285 (Homo sapiens, UniProt P18031); experiment: PTP1B inhibition, pNPP hydrolysis, short form; format: biochemical; conditions: pNPP substrate; ± S.D
T1 construct: h PTP1B 1–285 IC 50 (μM ± S.D); made in house
T1 sequence (P18031 1-285): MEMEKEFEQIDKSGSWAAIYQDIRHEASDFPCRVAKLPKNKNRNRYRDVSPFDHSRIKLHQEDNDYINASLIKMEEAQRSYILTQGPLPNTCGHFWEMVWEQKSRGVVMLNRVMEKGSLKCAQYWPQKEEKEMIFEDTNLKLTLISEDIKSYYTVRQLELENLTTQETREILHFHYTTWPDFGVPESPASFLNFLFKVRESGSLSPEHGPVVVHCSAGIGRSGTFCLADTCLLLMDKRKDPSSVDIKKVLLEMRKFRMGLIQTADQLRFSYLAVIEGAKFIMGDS
Method: In contrast to analogous regions in other PTP family proteins, the intrinsically disordered C-terminal domain of PTP1B (residues 301–400) contains two α-helices, α8′ (residues 320–327) and α9′ (residues 360–377), which may act as binding sites for various compounds.
(§1) Aliquots of 0–10 μL of the test compounds (triplicate) were taken and incubated for 15 min at 37 °C with 85 μL of Tris buffer solution (50 mM, pH 6.8) containing PTP1B enzyme and 5 μL of p-nitrophenyl phosphate substrate (pNPP, 10 mM). The absorbance of the hydrolysis product, p-nitrophenol (pNP), was measured at 405 nm using a 96-microplate absorbance reader (Accuris SmartReader 96). The inhibitory activity was determined according to eq . %enzyme=(A405b/A405c)×100 1 Where: % enzyme is the percentage of inhibition for PTP1B or TCPTP
(§2) The IC50 was calculated using regression analysis, eq : %inhibition=A100/1+(I/IC50)^s 2 Where: A100: Maximum inhibition

hTCPTP1–415 = target: T2, hTCPTP1–415 (Homo sapiens, UniProt P17706); experiment: TCPTP inhibitory activity; format: biochemical; conditions: pNPP substrate; tested up to 100 μM
T2 construct: h TCPTP 1–415 IC 50 (μM ± S.D); made in house
T2 sequence (P17706 1-415): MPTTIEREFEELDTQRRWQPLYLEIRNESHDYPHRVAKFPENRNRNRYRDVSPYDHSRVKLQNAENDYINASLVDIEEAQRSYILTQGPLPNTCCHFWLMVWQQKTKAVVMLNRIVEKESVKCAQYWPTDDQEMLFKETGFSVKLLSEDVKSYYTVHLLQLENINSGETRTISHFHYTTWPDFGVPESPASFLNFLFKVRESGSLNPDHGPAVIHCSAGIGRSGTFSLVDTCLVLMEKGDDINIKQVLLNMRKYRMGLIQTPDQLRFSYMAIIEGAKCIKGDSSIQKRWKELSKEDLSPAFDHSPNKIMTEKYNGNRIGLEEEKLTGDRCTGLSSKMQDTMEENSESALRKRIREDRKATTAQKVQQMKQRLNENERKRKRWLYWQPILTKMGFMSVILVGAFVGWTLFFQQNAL
Method: The effectiveness and safety of a PTP1B inhibitor primarily depend on its selectivity, given that protein tyrosine phosphatases share significant structural homology within their catalytic domains. […] Ertiprotafib was also included in this study.
as §1, §2

[1] = tested on: STZ-induced diabetic CD-1 mice; experiment: Insulin tolerance test (ITT); format: in vivo; conditions: for glycemia variation in ITT: single intragastric dose 50 mg/kg, insulin 0.75 IU after 30 min
Method: The studies were carried out on compounds 4b, 4g, and 5g using both normoglycemic CD1 mice and a mouse model of noninsulin-dependent diabetes mellitus (NIDDM). An oral glucose tolerance test (OGTT) was conducted on the normoglycemic mice to evaluate the hypoglycemic activity of the compounds, while an insulin tolerance test (ITT) was performed on hyperglycemic CD1 mice to assess the compounds' capacity to enhance insulin sensitivity in streptozotocin-induced diabetic mice. Pioglitazone and GA were included as positive controls. […] Healthy six-week-old male CD-1 mice, weighing between 30 and 40 g, were maintained at a temperature of 25 ± 2 °C, under a 12-h light/dark cycle and 45-65% humidity throughout the experimental period. The mice were provided with a rodent pelleted diet (Harlan Laboratories, Indianapolis, USA) and had access to water ad libitum. Sixteen hours before the experiment, all mice were fasted but still had free access to water. All animal procedures were conducted in accordance with the Mexican Federal Regulations for Animal Experimentation and Care (SAGARPA, NOM-062-ZOO-1999, Mexico) and received approval from the Institutional Animal Care and Use Committee, following guidelines outlined in the US National Institutes of Health publication (No. 85-23, revised 1985). Streptozotocin (STZ) was dissolved in citrate buffer (pH 4.5), while nicotinamide was dissolved in a normal physiological saline solution. The noninsulin-dependent diabetes (NIDD) mouse model was induced in overnight-fasted mice through a single intraperitoneal injection of STZ (100 mg/kg). Nicotinamide was administered 15 min prior, at a dose of 20 mg/kg via intraperitoneal injection. […] Roche). […] Animals were categorized into five groups, each consisting of four mice (n = 4). The experimental groups received an oral suspension of compounds 4b, 4g, and 5g, prepared in a 10% Tween 20/water solution, at a dosage of 50 mg/kg body weight. A control group was treated with only the 10% Tween 20 solution. The final group was administered pioglitazone at a dose of 45 mg/kg, which is recognized as a reference drug for insulin sensitization. To evaluate glucose levels, blood samples were collected from the tails of the mice at 0, 30, 60, 90, and 120 min after the administration of the vehicle, test compound, or drug. Blood glucose concentration was measured using a commercial glucometer (Accu-Chek, Performa; Roche) and the enzymatic glucose dehydrogenase method. The percentage variation in glycemia was calculated by comparing the selected postadministration glycemia (G x ) with the initial value (G0) using the following formula: %[…]=[(Gx-G0)/G0]×100 where G0 represents the initial glycemia values and Gx indicates the glycemia values at +30, + 60, + 90, and +120 min, respectively. To evaluate the ability of GA derivatives to enhance insulin sensitivity in STZ-induced diabetic CD-1 mice, compounds 4b, 4g, and 5g were tested. Glycyrrhetinic acid (GA) and Pioglitazone served as positive controls. The GA derivatives and the positive controls were administered to the diabetic animals, followed by the administration of human rapid-acting insulin (0.75 IU) after 30 min. Subsequently, glucose levels were measured every 15 min.

IC50 (hPTP1B1–285)	IC50 (hTCPTP1–415)	SMILES	ITT activity compared to GA ([1]; 50 mg/kg)	glycemia variation in ITT ([1]; 50 mg/kg)	glycemia variation in ITT [1]	ITT activity compared to pioglitazone ([1]; 50 mg/kg vs pioglitazone 45 mg/kg)	glycemic variation in ITT compared with normoglycemic mice ([1]; 50 mg/kg, after the 45th minute)
7.03 ± 0.28 µM	> 100 µM	CC1(C)c2[nH]c3ccc(OC(F)F)cc3c2C[C@]2(C)[C@H]3C(=O)C=C4[C@@H]5C[C@@](C)(C(=O)O)CC[C@]5(C)CC[C@@]4(C)[C@]3(C)CC[C@@H]12 [compound 4b, (20β)-5′-(Difluoromethoxy)-11-oxo-1′H-oleana-2,12-dieno[3,2-b]indol-29-oic Acid]	greater potency than GA	significantly reduced glucose levels; also recorded: reduce glycemia variation starting from the 15th minute			
9.11 ± 0.58 µM	> 100 µM	CC1(C)c2[nH]c3ccc(S(N)(=O)=O)cc3c2C[C@]2(C)[C@H]3C(=O)C=C4[C@@H]5C[C@@](C)(C(=O)O)CC[C@]5(C)CC[C@@]4(C)[C@]3(C)CC[C@@H]12 [compound 4g, (20β)-5′-Sulfamoyl-11-oxo-1′H-oleana-2,12-dieno[3,2-b]indol-29-oic Acid]			reduce glycemia variation starting from the 15th minute		
5.51 ± 0.16 µM	> 100 µM	CC1(C)c2c(cnn2-c2ccc(S(N)(=O)=O)cc2)C[C@]2(C)[C@H]3C(=O)C=C4[C@@H]5C[C@@](C)(C(=O)O)CC[C@]5(C)CC[C@@]4(C)[C@]3(C)CC[C@@H]12 [compound 5g, (20β)-11-Oxo-2′-(4-sulfamoylphenyl)-2′H-oleana-2,12-dieno[3,2-c]pyrazol-29-oic Acid]	greater potency than GA	significantly reduced glucose levels; also recorded: reduce glycemia variation starting from the 15th minute		superior activity compared to pioglitazone	no significant differences in glycemic variation
